This passage reports AC50 results from patent US20250171438A1 (Agios Pharmaceuticals, Inc., priority 2022, published 2025).

In the assay the target is T1, human PAH with the R408W mutation (Homo sapiens, UniProt P00439, R408W).
T1 construct: expressed in transfected cells
T1 sequence (P00439 1-452 R408W): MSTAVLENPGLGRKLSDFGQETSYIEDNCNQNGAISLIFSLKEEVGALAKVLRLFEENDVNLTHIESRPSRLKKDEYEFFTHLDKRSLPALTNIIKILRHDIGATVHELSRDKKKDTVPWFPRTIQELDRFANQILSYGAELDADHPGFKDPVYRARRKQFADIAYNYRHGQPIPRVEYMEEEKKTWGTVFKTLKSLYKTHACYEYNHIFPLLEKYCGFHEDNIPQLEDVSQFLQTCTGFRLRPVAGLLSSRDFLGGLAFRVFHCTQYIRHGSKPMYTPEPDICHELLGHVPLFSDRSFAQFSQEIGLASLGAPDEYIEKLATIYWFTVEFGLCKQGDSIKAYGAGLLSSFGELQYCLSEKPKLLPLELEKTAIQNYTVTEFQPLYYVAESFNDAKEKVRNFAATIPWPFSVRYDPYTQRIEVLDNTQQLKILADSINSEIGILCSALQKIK
In words: Cell Based Phenylalanine Flux Assay. As to conditions: A375 cells expressing human R408W PAH; 24 hrs compound incubation; 13C-Tyrosine by LC-MS; average where tested multiple times; read-out: AC50.

Turning to `O=C(c1oc(OCCC(F)(F)F)nc1C(F)F)N1CCc2[nH]cnc2[C@@H]1c1nc2ccccc2s1` [Example 1771, (R)-(4-(benzo[d]thiazol-2-yl)-6,7-dihydro-1H-imidazo[4,5-c]pyridin-5(4H)-yl)(4-(difluoromethyl)-2-(3,3,3-trifluoropropoxy)oxazol-5-yl)methanone], the half-maximal activity concentration (AC50) is less than 0.5 µM.

On to `O=C(c1oc(OCCC(F)(F)F)nc1C(F)F)N1CCc2[nH]cnc2[C@H]1c1nc2ccccc2s1` [Example 1772], for which the AC50 is less than 0.5 µM.

`CC(C)(O)c1nc(C(F)F)c(C(=O)N2CCc3[nH]cnc3[C@H]2c2nc3c(F)cccc3s2)o1` [Example 1773, (S)-(4-(difluoromethyl)-2-(2-hydroxypropan-2-yl)oxazol-5-yl)(4-(4-fluorobenzo[d]thiazol-2-yl)-6,7-dihydro-1H-imidazo[4,5-c]pyridin-5(4H)-yl)methanone]: the half-maximal activity concentration (AC50) is less than 0.5 µM.

In the case of `CC(C)(O)c1nc(C(F)F)c(C(=O)N2CCc3[nH]cnc3[C@@H]2c2nc3c(F)cccc3s2)o1` [Example 1774, (R)-(4-(difluoromethyl)-2-(2-hydroxypropan-2-yl)oxazol-5-yl)(4-(4-fluorobenzo[d]thiazol-2-yl)-6,7-dihydro-1H-imidazo[4,5-c]pyridin-5(4H)-yl)methanone], the AC50 was in the range of 1 to 5 µM.

On to `COCc1nc(Br)c(C(=O)N2CCc3[nH]cnc3[C@@H]2c2nc3c(F)cccc3s2)o1` [Example 1775, (R)-(4-bromo-2-(methoxymethyl)oxazol-5-yl)(4-(4-fluorobenzo[d]thiazol-2-yl)-6,7-dihydro-1H-imidazo[4,5-c]pyridin-5(4H)-yl)methanone], for which the AC50 fell in the range of 0.5 to 1 µM.

With `COCc1nc(Br)c(C(=O)N2CCc3[nH]cnc3[C@H]2c2nc3c(F)cccc3s2)o1` [Example 1776], the AC50 was less than 0.5 µM.

On to `O=C(c1nnc(-c2cnn(C(F)F)c2)o1)N1CCc2[nH]cnc2[C@H]1c1nc2ccccc2s1` [Example 1777], for which the AC50 is less than 0.5 µM.

Consider `O=C(c1nnc(-c2cnn(C(F)F)c2)o1)N1CCc2[nH]cnc2[C@@H]1c1nc2ccccc2s1` [Example 1778, (R)-(4-(benzo[d]thiazol-2-yl)-6,7-dihydro-1H-imidazo[4,5-c]pyridin-5(4H)-yl)(5-(1-(difluoromethyl)-1H-pyrazol-4-yl)-1,3,4-oxadiazol-2-yl)methanone], for which the AC50 was more than 5 µM.

Regarding `N#Cc1nn2cc(Br)ccc2c1C(=O)N1CCc2[nH]cnc2[C@H]1c1nc2ccccc2s1` [Example 1779, (S)-3-(4-(benzo[d]thiazol-2-yl)-4,5,6,7-tetrahydro-1H-imidazo[4,5-c]pyridine-5-carbonyl)-6-bromopyrazolo[1,5-a]pyridine-2-carbonitrile], the AC50 is less than 0.5 µM.

As for `N#Cc1nn2cc(Br)ccc2c1C(=O)N1CCc2[nH]cnc2[C@@H]1c1nc2ccccc2s1` [Example 1780, (R)-3-(4-(benzo[d]thiazol-2-yl)-4,5,6,7-tetrahydro-1H-imidazo[4,5-c]pyridine-5-carbonyl)-6-bromopyrazolo[1,5-a]pyridine-2-carbonitrile], the AC50 was in the range of 1 to 5 µM.

Turning to `CN(C)Cc1nc(C(F)F)c(C(=O)N2CCc3[nH]cnc3[C@H]2c2nc3ccccc3s2)o1` [Example 1781], the AC50 was less than 0.5 µM.

As for `CN(C)Cc1nc(C(F)F)c(C(=O)N2CCc3[nH]cnc3[C@@H]2c2nc3ccccc3s2)o1` [Example 1782, (R)-(4-(benzo[d]thiazol-2-yl)-6,7-dihydro-1H-imidazo[4,5-c]pyridin-5(4H)-yl)(4-(difluoromethyl)-2-((dimethylamino)methyl)oxazol-5-yl)methanone], the AC50 lay in the range of 0.5 to 1 µM.

Turning to `Cc1cc(F)ccc1-c1nnc(C(=O)N2CCc3[nH]cnc3[C@H]2c2nc3ccccc3s2)o1` [Example 1783], the half-maximal activity concentration (AC50) is less than 0.5 µM.

With `Cc1cc(F)ccc1-c1nnc(C(=O)N2CCc3[nH]cnc3[C@@H]2c2nc3ccccc3s2)o1` [Example 1784, (R)-(4-(benzo[d]thiazol-2-yl)-6,7-dihydro-1H-imidazo[4,5-c]pyridin-5(4H)-yl)(5-(4-fluoro-2-methylphenyl)-1,3,4-oxadiazol-2-yl)methanone], the AC50 was more than 5 µM.

For `O=C(c1oc(C2CC(F)(F)C2)nc1C(F)F)N1CCc2[nH]cnc2[C@@H]1c1nc2ccccc2s1` [Example 1785, (R)-(4-(benzo[d]thiazol-2-yl)-6,7-dihydro-1H-imidazo[4,5-c]pyridin-5(4H)-yl)(2-(3,3-difluorocyclobutyl)-4-(difluoromethyl)oxazol-5-yl)methanone], the AC50 is less than 0.5 µM.

Regarding `O=C(c1oc(C2CC(F)(F)C2)nc1C(F)F)N1CCc2[nH]cnc2[C@H]1c1nc2ccccc2s1` [Example 1786], the AC50 is less than 0.5 µM.

As for `Cn1nc(C(F)(F)F)cc1C(=O)N1CCc2[nH]cnc2[C@H]1c1nc2c(F)cccc2s1` [Example 1787, (S)-(4-(4-fluorobenzo[d]thiazol-2-yl)-6,7-dihydro-1H-imidazo[4,5-c]pyridin-5(4H)-yl)(1-methyl-3-(trifluoromethyl)-1H-pyrazol-5-yl)methanone], the AC50 lay in the range of 1 to 5 µM.

As to `Cn1nc(C(F)(F)F)cc1C(=O)N1CCc2[nH]cnc2[C@@H]1c1nc2c(F)cccc2s1` [Example 1788, (R)-(4-(4-fluorobenzo[d]thiazol-2-yl)-6,7-dihydro-1H-imidazo[4,5-c]pyridin-5(4H)-yl)(1-methyl-3-(trifluoromethyl)-1H-pyrazol-5-yl)methanone], the AC50 was more than 5 µM.

Regarding `O=C(c1nnc(OCCC(F)(F)F)o1)N1CCc2[nH]cnc2[C@@H]1c1nc2ccccc2s1` [Example 1789, (R)-(4-(benzo[d]thiazol-2-yl)-6,7-dihydro-1H-imidazo[4,5-c]pyridin-5(4H)-yl)(5-(3,3,3-trifluoropropoxy)-1,3,4-oxadiazol-2-yl)methanone], the AC50 lay within 1 to 5 µM.

Consider `O=C(c1nnc(OCCC(F)(F)F)o1)N1CCc2[nH]cnc2[C@H]1c1nc2ccccc2s1` [Example 1790], for which the AC50 fell in the range of 0.5 to 1 µM.

As to `O=C(c1nnc(-n2cccn2)o1)N1CCc2[nH]cnc2[C@@H]1c1nc2ccccc2s1` [Example 1791, (R)-(5-(1H-pyrazol-1-yl)-1,3,4-oxadiazol-2-yl)(4-(benzo[d]thiazol-2-yl)-6,7-dihydro-1H-imidazo[4,5-c]pyridin-5(4H)-yl)methanone], the AC50 lay in the range of 1 to 5 µM.

Regarding `O=C(c1nnc(-n2cccn2)o1)N1CCc2[nH]cnc2[C@H]1c1nc2ccccc2s1` [Example 1792], the AC50 is less than 0.5 µM.

With `O=C(c1nnc(-c2cnn(CC(F)(F)F)c2)o1)N1CCc2[nH]cnc2[C@H]1c1nc2ccccc2s1` [Example 1793, [(4S)-4-(1,3-benzothiazol-2-yl)-1,4,6,7-tetrahydroimidazo[4,5-c]pyridin-5-yl]-[5-[1-(2,2,2-trifluoroethyl)pyrazol-4-yl]-1,3,4-oxadiazol-2-yl]methanone], the AC50 is less than 0.5 µM.

Turning to `O=C(c1nnc(-c2cnn(CC(F)(F)F)c2)o1)N1CCc2[nH]cnc2[C@@H]1c1nc2ccccc2s1` [Example 1794, [(4R)-4-(1,3-benzothiazol-2-yl)-1,4,6,7-tetrahydroimidazo[4,5-c]pyridin-5-yl]-[5-[1-(2,2,2-trifluoroethyl)pyrazol-4-yl]-1,3,4-oxadiazol-2-yl]methanone], the AC50 was in the range of 1 to 5 µM.

Turning to `O=C(c1oc(-c2ccccn2)nc1C(F)F)N1CCc2[nH]cnc2[C@H]1c1nc2ccccc2s1` [Example 1795], the AC50 is less than 0.5 µM.

In the case of `O=C(c1oc(-c2ccccn2)nc1C(F)F)N1CCc2[nH]cnc2[C@@H]1c1nc2ccccc2s1` [Example 1796, (R)-(4-(benzo[d]thiazol-2-yl)-6,7-dihydro-1H-imidazo[4,5-c]pyridin-5(4H)-yl)(4-(difluoromethyl)-2-(pyridin-2-yl)oxazol-5-yl)methanone], the AC50 is less than 0.5 µM.

Consider `O=C(c1oc(-c2ccccn2)nc1C(F)F)N1CCc2[nH]cnc2[C@@H]1c1nc2c(F)cccc2s1` [Example 1797, (R)-(4-(difluoromethyl)-2-(pyridin-2-yl)oxazol-5-yl)(4-(4-fluorobenzo[d]thiazol-2-yl)-6,7-dihydro-1H-imidazo[4,5-c]pyridin-5(4H)-yl)methanone], for which the AC50 is less than 0.5 µM.

Take `O=C(c1oc(-c2ccccn2)nc1C(F)F)N1CCc2[nH]cnc2[C@H]1c1nc2c(F)cccc2s1` [Example 1798, (S)-(4-(difluoromethyl)-2-(pyridin-2-yl)oxazol-5-yl)(4-(4-fluorobenzo[d]thiazol-2-yl)-6,7-dihydro-1H-imidazo[4,5-c]pyridin-5(4H)-yl)methanone]: the concentration at half-maximal activity (AC50) was less than 0.5 µM.

In the case of `Cn1cc(-c2nc(C(F)F)c(C(=O)N3CCc4[nH]cnc4[C@H]3c3nc4ccccc4s3)o2)cn1` [Example 1799], the AC50 was less than 0.5 µM.

As for `O=C(c1nnc(-c2ccc(F)c(F)c2)o1)N1CCc2[nH]cnc2[C@H]1c1nc2ccccc2s1` [Example 1801], the AC50 is less than 0.5 µM.

With `O=C(c1nnc(-c2ccc(F)c(F)c2)o1)N1CCc2[nH]cnc2[C@@H]1c1nc2ccccc2s1` [Example 1802, (R)-(4-(benzo[d]thiazol-2-yl)-6,7-dihydro-1H-imidazo[4,5-c]pyridin-5(4H)-yl)(5-(3,4-difluorophenyl)-1,3,4-oxadiazol-2-yl)methanone], the AC50 lay in the range of 1 to 5 µM.

Regarding `Cn1nc(C(F)F)cc1C(=O)N1CCc2[nH]cnc2[C@H]1c1nc2ccccc2s1` [Example 1803], the AC50 is less than 0.5 µM.

As for `Cn1nc(C(F)F)cc1C(=O)N1CCc2[nH]cnc2[C@@H]1c1nc2ccccc2s1` [Example 1804, (R)-(4-(benzo[d]thiazol-2-yl)-6,7-dihydro-1H-imidazo[4,5-c]pyridin-5(4H)-yl)(3-(difluoromethyl)-1-methyl-1H-pyrazol-5-yl)methanone], the AC50 is 1 to 5 µM.

For orientation: AC50 means the concentration at which the activity in the assay is half-maximal.
